According to patent publication US12180194B2, “Multi-aziridine compound” (Covestro (Netherlands) B.V., priority 2018, dated 2024):

Tested on: Bscl2-GFP
Experiment: ToxTracker genotoxicity assay, Bscl2-GFP reporter induction
Details: GFP induction vs vehicle at 10% cytotoxicity; 3 h exposure with S9, 24 h recovery

Structure (SMILES) | Genotoxicity test, With S9 rat liver extract, Bscl 2, 10 [fold]
CC(CN1CC1C)OC(=O)NC1CCC(CC2CCC(NC(=O)OC(C)CN3CC3C)CC2)CC1 (stereo not shown) [Comp. Ex. 9, reference compound] | 1.2
CC(CN1CC1C)OC(=O)NCC1(C)CC(NC(=O)OC(C)CN2CC2C)CC(C)(C)C1 (stereo not shown) [Comp. Ex. 7, reference compound] | 1.2

Same assay, conditions: GFP induction vs vehicle at 10% cytotoxicity; 24 h exposure, no S9

Structure (SMILES) | Genotoxicity test, Without S9 rat liver extract, Bscl 2, 10 [fold]
CC(CN1CC1C)OC(=O)NC1CCC(CC2CCC(NC(=O)OC(C)CN3CC3C)CC2)CC1 (stereo not shown) [Comp. Ex. 9, reference compound] | 1.2
CC(CN1CC1C)OC(=O)NCC1(C)CC(NC(=O)OC(C)CN2CC2C)CC(C)(C)C1 (stereo not shown) [Comp. Ex. 7, reference compound] | 1.2

Same assay, conditions: GFP induction vs vehicle at 25% cytotoxicity; 3 h exposure with S9, 24 h recovery

Structure (SMILES) | Genotoxicity test, With S9 rat liver extract, Bscl 2, 25 [fold]
CC(CN1CC1C)OC(=O)NC1CCC(CC2CCC(NC(=O)OC(C)CN3CC3C)CC2)CC1 (stereo not shown) [Comp. Ex. 9, reference compound] | 1.6
CC(CN1CC1C)OC(=O)NCC1(C)CC(NC(=O)OC(C)CN2CC2C)CC(C)(C)C1 (stereo not shown) [Comp. Ex. 7, reference compound] | 1.6

Same assay, conditions: GFP induction vs vehicle at 25% cytotoxicity; 24 h exposure, no S9

Structure (SMILES) | Genotoxicity test, Without S9 rat liver extract, Bscl 2, 25 [fold]
CC(CN1CC1C)OC(=O)NC1CCC(CC2CCC(NC(=O)OC(C)CN3CC3C)CC2)CC1 (stereo not shown) [Comp. Ex. 9, reference compound] | 1.6
CC(CN1CC1C)OC(=O)NCC1(C)CC(NC(=O)OC(C)CN2CC2C)CC(C)(C)C1 (stereo not shown) [Comp. Ex. 7, reference compound] | 1.6

Same assay, conditions: GFP induction vs vehicle at 50% cytotoxicity; 3 h exposure with S9, 24 h recovery

Structure (SMILES) | Genotoxicity test, With S9 rat liver extract, Bscl 2, 50 [fold]
CC(CN1CC1C)OC(=O)NC1CCC(CC2CCC(NC(=O)OC(C)CN3CC3C)CC2)CC1 (stereo not shown) [Comp. Ex. 9, reference compound] | 2.0
CC(CN1CC1C)OC(=O)NCC1(C)CC(NC(=O)OC(C)CN2CC2C)CC(C)(C)C1 (stereo not shown) [Comp. Ex. 7, reference compound] | 1.7

Same assay, conditions: GFP induction vs vehicle at 50% cytotoxicity; 24 h exposure, no S9

Structure (SMILES) | Genotoxicity test, Without S9 rat liver extract, Bscl 2, 50 [fold]
CC(CN1CC1C)OC(=O)NC1CCC(CC2CCC(NC(=O)OC(C)CN3CC3C)CC2)CC1 (stereo not shown) [Comp. Ex. 9, reference compound] | 2.2
CC(CN1CC1C)OC(=O)NCC1(C)CC(NC(=O)OC(C)CN2CC2C)CC(C)(C)C1 (stereo not shown) [Comp. Ex. 7, reference compound] | 2.4

Same assay, conditions: with S9 rat liver extract; concentration 10 (10% cytotoxicity); fold induction

Structure (SMILES) | Genotoxicity test, Bscl 2 induction level
CCCCOCC(CN1CC1(C)C)OC(=O)NCCCCCCn1c(=O)n(CCCCCCNC(=O)OC(COCCCC)CN2CC2(C)C)c(=O)n(CCCCCCNC(=O)OC(COCCCC)CN2CC2(C)C)c1=O (stereo not shown) [Ex. 31] | 1.1
CCCCOCC(CN1CC1CC)OC(=O)NCCCCCCn1c(=O)n(CCCCCCNC(=O)OC(COCCCC)CN2CC2CC)c(=O)n(CCCCCCNC(=O)OC(COCCCC)CN2CC2CC)c1=O (stereo not shown) [Ex. 32] | 1.1

Same assay, conditions: with S9 rat liver extract; concentration 25 (25% cytotoxicity); fold induction

Structure (SMILES) | Genotoxicity test, Bscl 2 induction level
CCCCOCC(CN1CC1(C)C)OC(=O)NCCCCCCn1c(=O)n(CCCCCCNC(=O)OC(COCCCC)CN2CC2(C)C)c(=O)n(CCCCCCNC(=O)OC(COCCCC)CN2CC2(C)C)c1=O (stereo not shown) [Ex. 31] | 1.1
CCCCOCC(CN1CC1CC)OC(=O)NCCCCCCn1c(=O)n(CCCCCCNC(=O)OC(COCCCC)CN2CC2CC)c(=O)n(CCCCCCNC(=O)OC(COCCCC)CN2CC2CC)c1=O (stereo not shown) [Ex. 32] | 1.1

Same assay, conditions: with S9 rat liver extract; concentration 50 (50% cytotoxicity); fold induction

Structure (SMILES) | Genotoxicity test, Bscl 2 induction level
CCCCOCC(CN1CC1(C)C)OC(=O)NCCCCCCn1c(=O)n(CCCCCCNC(=O)OC(COCCCC)CN2CC2(C)C)c(=O)n(CCCCCCNC(=O)OC(COCCCC)CN2CC2(C)C)c1=O (stereo not shown) [Ex. 31] | 1.1
CCCCOCC(CN1CC1CC)OC(=O)NCCCCCCn1c(=O)n(CCCCCCNC(=O)OC(COCCCC)CN2CC2CC)c(=O)n(CCCCCCNC(=O)OC(COCCCC)CN2CC2CC)c1=O (stereo not shown) [Ex. 32] | 1.1

Same assay, conditions: without S9 rat liver extract; concentration 10 (10% cytotoxicity); fold induction

Structure (SMILES) | Genotoxicity test, Bscl 2 induction level
CCCCOCC(CN1CC1(C)C)OC(=O)NCCCCCCn1c(=O)n(CCCCCCNC(=O)OC(COCCCC)CN2CC2(C)C)c(=O)n(CCCCCCNC(=O)OC(COCCCC)CN2CC2(C)C)c1=O (stereo not shown) [Ex. 31] | 1.2
CCCCOCC(CN1CC1CC)OC(=O)NCCCCCCn1c(=O)n(CCCCCCNC(=O)OC(COCCCC)CN2CC2CC)c(=O)n(CCCCCCNC(=O)OC(COCCCC)CN2CC2CC)c1=O (stereo not shown) [Ex. 32] | 1.1

Same assay, conditions: without S9 rat liver extract; concentration 25 (25% cytotoxicity); fold induction

Structure (SMILES) | Genotoxicity test, Bscl 2 induction level
CCCCOCC(CN1CC1(C)C)OC(=O)NCCCCCCn1c(=O)n(CCCCCCNC(=O)OC(COCCCC)CN2CC2(C)C)c(=O)n(CCCCCCNC(=O)OC(COCCCC)CN2CC2(C)C)c1=O (stereo not shown) [Ex. 31] | 1.2
CCCCOCC(CN1CC1CC)OC(=O)NCCCCCCn1c(=O)n(CCCCCCNC(=O)OC(COCCCC)CN2CC2CC)c(=O)n(CCCCCCNC(=O)OC(COCCCC)CN2CC2CC)c1=O (stereo not shown) [Ex. 32] | 1.2

Same assay, conditions: without S9 rat liver extract; concentration 50 (50% cytotoxicity); fold induction

Structure (SMILES) | Genotoxicity test, Bscl 2 induction level
CCCCOCC(CN1CC1CC)OC(=O)NCCCCCCn1c(=O)n(CCCCCCNC(=O)OC(COCCCC)CN2CC2CC)c(=O)n(CCCCCCNC(=O)OC(COCCCC)CN2CC2CC)c1=O (stereo not shown) [Ex. 32] | 1.3

Tested on: Rtkn-GFP
Experiment: ToxTracker genotoxicity assay, Rtkn-GFP reporter induction
Details: GFP induction vs vehicle at 10% cytotoxicity; 3 h exposure with S9, 24 h recovery

Structure (SMILES) | Genotoxicity test, With S9 rat liver extract, Rtkn, 10 [fold]
CC(CN1CC1C)OC(=O)NC1CCC(CC2CCC(NC(=O)OC(C)CN3CC3C)CC2)CC1 (stereo not shown) [Comp. Ex. 9, reference compound] | 1.6
CC(CN1CC1C)OC(=O)NCC1(C)CC(NC(=O)OC(C)CN2CC2C)CC(C)(C)C1 (stereo not shown) [Comp. Ex. 7, reference compound] | 1.6

Same assay, conditions: GFP induction vs vehicle at 10% cytotoxicity; 24 h exposure, no S9

Structure (SMILES) | Genotoxicity test, Without S9 rat liver extract, Rtkn, 10 [fold]
CC(CN1CC1C)OC(=O)NC1CCC(CC2CCC(NC(=O)OC(C)CN3CC3C)CC2)CC1 (stereo not shown) [Comp. Ex. 9, reference compound] | 1.5
CC(CN1CC1C)OC(=O)NCC1(C)CC(NC(=O)OC(C)CN2CC2C)CC(C)(C)C1 (stereo not shown) [Comp. Ex. 7, reference compound] | 1.6

Same assay, conditions: GFP induction vs vehicle at 25% cytotoxicity; 3 h exposure with S9, 24 h recovery

Structure (SMILES) | Genotoxicity test, With S9 rat liver extract, Rtkn, 25 [fold]
CC(CN1CC1C)OC(=O)NC1CCC(CC2CCC(NC(=O)OC(C)CN3CC3C)CC2)CC1 (stereo not shown) [Comp. Ex. 9, reference compound] | 2.6
CC(CN1CC1C)OC(=O)NCC1(C)CC(NC(=O)OC(C)CN2CC2C)CC(C)(C)C1 (stereo not shown) [Comp. Ex. 7, reference compound] | 2.7

Same assay, conditions: GFP induction vs vehicle at 25% cytotoxicity; 24 h exposure, no S9

Structure (SMILES) | Genotoxicity test, Without S9 rat liver extract, Rtkn, 25 [fold]
CC(CN1CC1C)OC(=O)NC1CCC(CC2CCC(NC(=O)OC(C)CN3CC3C)CC2)CC1 (stereo not shown) [Comp. Ex. 9, reference compound] | 2.2
CC(CN1CC1C)OC(=O)NCC1(C)CC(NC(=O)OC(C)CN2CC2C)CC(C)(C)C1 (stereo not shown) [Comp. Ex. 7, reference compound] | 2.5

Same assay, conditions: GFP induction vs vehicle at 50% cytotoxicity; 3 h exposure with S9, 24 h recovery

Structure (SMILES) | Genotoxicity test, With S9 rat liver extract, Rtkn, 50 [fold]
CC(CN1CC1C)OC(=O)NC1CCC(CC2CCC(NC(=O)OC(C)CN3CC3C)CC2)CC1 (stereo not shown) [Comp. Ex. 9, reference compound] | 3.7
CC(CN1CC1C)OC(=O)NCC1(C)CC(NC(=O)OC(C)CN2CC2C)CC(C)(C)C1 (stereo not shown) [Comp. Ex. 7, reference compound] | 3.5

Same assay, conditions: GFP induction vs vehicle at 50% cytotoxicity; 24 h exposure, no S9

Structure (SMILES) | Genotoxicity test, Without S9 rat liver extract, Rtkn, 50 [fold]
CC(CN1CC1C)OC(=O)NC1CCC(CC2CCC(NC(=O)OC(C)CN3CC3C)CC2)CC1 (stereo not shown) [Comp. Ex. 9, reference compound] | 3.3
CC(CN1CC1C)OC(=O)NCC1(C)CC(NC(=O)OC(C)CN2CC2C)CC(C)(C)C1 (stereo not shown) [Comp. Ex. 7, reference compound] | 3.8

Same assay, conditions: with S9 rat liver extract; concentration 10 (10% cytotoxicity); fold induction

Structure (SMILES) | Genotoxicity test, Rtkn induction level
CCCCOCC(CN1CC1(C)C)OC(=O)NCCCCCCn1c(=O)n(CCCCCCNC(=O)OC(COCCCC)CN2CC2(C)C)c(=O)n(CCCCCCNC(=O)OC(COCCCC)CN2CC2(C)C)c1=O (stereo not shown) [Ex. 31] | 1.2
CCCCOCC(CN1CC1CC)OC(=O)NCCCCCCn1c(=O)n(CCCCCCNC(=O)OC(COCCCC)CN2CC2CC)c(=O)n(CCCCCCNC(=O)OC(COCCCC)CN2CC2CC)c1=O (stereo not shown) [Ex. 32] | 1.0

Same assay, conditions: with S9 rat liver extract; concentration 25 (25% cytotoxicity); fold induction

Structure (SMILES) | Genotoxicity test, Rtkn induction level
CCCCOCC(CN1CC1(C)C)OC(=O)NCCCCCCn1c(=O)n(CCCCCCNC(=O)OC(COCCCC)CN2CC2(C)C)c(=O)n(CCCCCCNC(=O)OC(COCCCC)CN2CC2(C)C)c1=O (stereo not shown) [Ex. 31] | 1.2
CCCCOCC(CN1CC1CC)OC(=O)NCCCCCCn1c(=O)n(CCCCCCNC(=O)OC(COCCCC)CN2CC2CC)c(=O)n(CCCCCCNC(=O)OC(COCCCC)CN2CC2CC)c1=O (stereo not shown) [Ex. 32] | 1.1

Same assay, conditions: with S9 rat liver extract; concentration 50 (50% cytotoxicity); fold induction

Structure (SMILES) | Genotoxicity test, Rtkn induction level
CCCCOCC(CN1CC1(C)C)OC(=O)NCCCCCCn1c(=O)n(CCCCCCNC(=O)OC(COCCCC)CN2CC2(C)C)c(=O)n(CCCCCCNC(=O)OC(COCCCC)CN2CC2(C)C)c1=O (stereo not shown) [Ex. 31] | 1.3
CCCCOCC(CN1CC1CC)OC(=O)NCCCCCCn1c(=O)n(CCCCCCNC(=O)OC(COCCCC)CN2CC2CC)c(=O)n(CCCCCCNC(=O)OC(COCCCC)CN2CC2CC)c1=O (stereo not shown) [Ex. 32] | 1.1

Same assay, conditions: without S9 rat liver extract; concentration 10 (10% cytotoxicity); fold induction

Structure (SMILES) | Genotoxicity test, Rtkn induction level
CCCCOCC(CN1CC1(C)C)OC(=O)NCCCCCCn1c(=O)n(CCCCCCNC(=O)OC(COCCCC)CN2CC2(C)C)c(=O)n(CCCCCCNC(=O)OC(COCCCC)CN2CC2(C)C)c1=O (stereo not shown) [Ex. 31] | 1.2
CCCCOCC(CN1CC1CC)OC(=O)NCCCCCCn1c(=O)n(CCCCCCNC(=O)OC(COCCCC)CN2CC2CC)c(=O)n(CCCCCCNC(=O)OC(COCCCC)CN2CC2CC)c1=O (stereo not shown) [Ex. 32] | 1.0

Same assay, conditions: without S9 rat liver extract; concentration 25 (25% cytotoxicity); fold induction

Structure (SMILES) | Genotoxicity test, Rtkn induction level
CCCCOCC(CN1CC1(C)C)OC(=O)NCCCCCCn1c(=O)n(CCCCCCNC(=O)OC(COCCCC)CN2CC2(C)C)c(=O)n(CCCCCCNC(=O)OC(COCCCC)CN2CC2(C)C)c1=O (stereo not shown) [Ex. 31] | 1.2
CCCCOCC(CN1CC1CC)OC(=O)NCCCCCCn1c(=O)n(CCCCCCNC(=O)OC(COCCCC)CN2CC2CC)c(=O)n(CCCCCCNC(=O)OC(COCCCC)CN2CC2CC)c1=O (stereo not shown) [Ex. 32] | 1.1

Same assay, conditions: without S9 rat liver extract; concentration 50 (50% cytotoxicity); fold induction

Structure (SMILES) | Genotoxicity test, Rtkn induction level
CCCCOCC(CN1CC1CC)OC(=O)NCCCCCCn1c(=O)n(CCCCCCNC(=O)OC(COCCCC)CN2CC2CC)c(=O)n(CCCCCCNC(=O)OC(COCCCC)CN2CC2CC)c1=O (stereo not shown) [Ex. 32] | 1.1
